Like-named read-outs stand apart in the source and are kept apart here. Values belong to the compound of their own block, whether it stands above or below them.
Columns and labels:
Test in all cases: biochemical
Parameters in all cases: DiscoveRx KINOMEscan active site-directed competition binding; percent of control kinase bound to immobilised ligand
BRK = biological target: T1, BRK (Homo sapiens, UniProt Q13882)
T1 construct: gene PTK6

BTK = BTK (Homo sapiens, UniProt Q06187)
EGFR(E746-A750del) = EGFR(E746-A750del) (Homo sapiens, UniProt P00533, DEL746-750)
FER = FER (Homo sapiens, UniProt P16591)
LATS2 = biological target: T2, LATS2 (Homo sapiens, UniProt Q9NRM7)
T2 sequence (Q9NRM7 1-1088): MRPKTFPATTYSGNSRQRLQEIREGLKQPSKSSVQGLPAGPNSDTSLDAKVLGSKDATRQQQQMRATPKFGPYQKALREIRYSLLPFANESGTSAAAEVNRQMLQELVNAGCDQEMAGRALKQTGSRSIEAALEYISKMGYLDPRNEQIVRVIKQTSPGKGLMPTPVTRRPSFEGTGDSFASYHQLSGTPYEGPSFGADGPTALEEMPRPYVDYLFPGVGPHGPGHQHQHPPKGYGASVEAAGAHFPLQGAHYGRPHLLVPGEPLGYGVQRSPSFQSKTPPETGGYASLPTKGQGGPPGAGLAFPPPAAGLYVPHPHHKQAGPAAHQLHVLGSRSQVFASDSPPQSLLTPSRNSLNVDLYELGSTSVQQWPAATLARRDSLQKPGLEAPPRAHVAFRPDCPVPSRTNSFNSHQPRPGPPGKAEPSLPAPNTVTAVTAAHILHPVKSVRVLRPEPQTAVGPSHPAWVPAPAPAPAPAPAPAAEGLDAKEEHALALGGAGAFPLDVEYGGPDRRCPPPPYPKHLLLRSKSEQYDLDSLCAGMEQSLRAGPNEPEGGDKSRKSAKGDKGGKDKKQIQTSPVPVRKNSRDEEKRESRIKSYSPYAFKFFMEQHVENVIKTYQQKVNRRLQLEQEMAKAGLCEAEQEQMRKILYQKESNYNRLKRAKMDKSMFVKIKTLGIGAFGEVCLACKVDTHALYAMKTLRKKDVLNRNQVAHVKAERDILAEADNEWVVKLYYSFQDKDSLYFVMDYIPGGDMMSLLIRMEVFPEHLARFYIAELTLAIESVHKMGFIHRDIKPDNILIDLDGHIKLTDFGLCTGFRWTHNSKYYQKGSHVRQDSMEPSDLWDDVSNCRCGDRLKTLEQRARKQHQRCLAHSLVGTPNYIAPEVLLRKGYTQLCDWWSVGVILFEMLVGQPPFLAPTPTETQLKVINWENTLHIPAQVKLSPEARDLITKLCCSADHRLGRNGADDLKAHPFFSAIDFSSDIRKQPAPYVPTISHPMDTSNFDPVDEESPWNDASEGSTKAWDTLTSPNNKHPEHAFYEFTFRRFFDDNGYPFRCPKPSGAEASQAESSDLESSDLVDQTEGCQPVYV

MARK2 = MARK2 (Homo sapiens, UniProt Q7KZI7)
PIK3CB = PIK3CB (Homo sapiens, UniProt P42338)
PIM2 = PIM2 (Homo sapiens, UniProt Q9P1W9)
ROCK2 = ROCK2 (Homo sapiens, UniProt O75116)
STK16 = STK16 (Homo sapiens, UniProt O75716)
TGFBR2 = TGFBR2 (Homo sapiens, UniProt P37173)
YES = biological target: T3, YES (Homo sapiens, UniProt P07947)
T3 construct: gene YES1

[1] = read-out: Olaparib / %Ctrl @ 10000nM
[2] = read-out: Talazoparib (BMN 673) / %Ctrl @ 10000nM
[3] = read-out: Rucaparib / %Ctrl @ 10000nM, binding competition, % of control
[4] = read-out: Niraparib (MK-4827) / %Ctrl @ 10000nM

Chain of PIK3CB (P42338 whole entry): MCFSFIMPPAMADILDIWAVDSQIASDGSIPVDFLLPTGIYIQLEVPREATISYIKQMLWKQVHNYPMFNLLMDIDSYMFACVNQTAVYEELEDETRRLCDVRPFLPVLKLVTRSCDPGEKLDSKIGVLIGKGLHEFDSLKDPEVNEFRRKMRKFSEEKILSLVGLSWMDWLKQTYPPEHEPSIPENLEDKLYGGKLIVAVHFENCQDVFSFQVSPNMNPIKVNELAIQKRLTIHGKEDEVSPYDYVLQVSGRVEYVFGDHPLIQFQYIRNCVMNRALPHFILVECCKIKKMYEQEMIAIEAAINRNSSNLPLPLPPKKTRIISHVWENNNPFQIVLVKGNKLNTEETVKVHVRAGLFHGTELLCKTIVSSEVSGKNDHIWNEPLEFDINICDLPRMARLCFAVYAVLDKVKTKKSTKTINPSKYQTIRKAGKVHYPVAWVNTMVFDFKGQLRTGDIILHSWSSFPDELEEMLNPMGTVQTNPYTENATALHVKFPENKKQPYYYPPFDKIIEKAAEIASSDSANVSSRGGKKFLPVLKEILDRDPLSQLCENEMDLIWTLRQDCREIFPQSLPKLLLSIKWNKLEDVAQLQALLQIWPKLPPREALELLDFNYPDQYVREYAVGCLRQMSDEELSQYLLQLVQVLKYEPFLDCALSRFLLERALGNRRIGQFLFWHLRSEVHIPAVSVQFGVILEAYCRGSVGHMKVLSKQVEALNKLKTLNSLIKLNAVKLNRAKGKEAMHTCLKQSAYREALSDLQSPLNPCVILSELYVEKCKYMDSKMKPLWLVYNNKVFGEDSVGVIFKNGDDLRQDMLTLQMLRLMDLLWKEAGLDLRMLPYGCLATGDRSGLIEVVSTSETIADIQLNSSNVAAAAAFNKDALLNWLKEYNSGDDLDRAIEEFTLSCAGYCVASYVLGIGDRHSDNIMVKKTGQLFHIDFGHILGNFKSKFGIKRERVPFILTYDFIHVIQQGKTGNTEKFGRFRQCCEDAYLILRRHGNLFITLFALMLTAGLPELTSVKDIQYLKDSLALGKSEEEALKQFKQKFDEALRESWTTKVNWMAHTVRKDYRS
Chain of ROCK2 (O75116 whole entry): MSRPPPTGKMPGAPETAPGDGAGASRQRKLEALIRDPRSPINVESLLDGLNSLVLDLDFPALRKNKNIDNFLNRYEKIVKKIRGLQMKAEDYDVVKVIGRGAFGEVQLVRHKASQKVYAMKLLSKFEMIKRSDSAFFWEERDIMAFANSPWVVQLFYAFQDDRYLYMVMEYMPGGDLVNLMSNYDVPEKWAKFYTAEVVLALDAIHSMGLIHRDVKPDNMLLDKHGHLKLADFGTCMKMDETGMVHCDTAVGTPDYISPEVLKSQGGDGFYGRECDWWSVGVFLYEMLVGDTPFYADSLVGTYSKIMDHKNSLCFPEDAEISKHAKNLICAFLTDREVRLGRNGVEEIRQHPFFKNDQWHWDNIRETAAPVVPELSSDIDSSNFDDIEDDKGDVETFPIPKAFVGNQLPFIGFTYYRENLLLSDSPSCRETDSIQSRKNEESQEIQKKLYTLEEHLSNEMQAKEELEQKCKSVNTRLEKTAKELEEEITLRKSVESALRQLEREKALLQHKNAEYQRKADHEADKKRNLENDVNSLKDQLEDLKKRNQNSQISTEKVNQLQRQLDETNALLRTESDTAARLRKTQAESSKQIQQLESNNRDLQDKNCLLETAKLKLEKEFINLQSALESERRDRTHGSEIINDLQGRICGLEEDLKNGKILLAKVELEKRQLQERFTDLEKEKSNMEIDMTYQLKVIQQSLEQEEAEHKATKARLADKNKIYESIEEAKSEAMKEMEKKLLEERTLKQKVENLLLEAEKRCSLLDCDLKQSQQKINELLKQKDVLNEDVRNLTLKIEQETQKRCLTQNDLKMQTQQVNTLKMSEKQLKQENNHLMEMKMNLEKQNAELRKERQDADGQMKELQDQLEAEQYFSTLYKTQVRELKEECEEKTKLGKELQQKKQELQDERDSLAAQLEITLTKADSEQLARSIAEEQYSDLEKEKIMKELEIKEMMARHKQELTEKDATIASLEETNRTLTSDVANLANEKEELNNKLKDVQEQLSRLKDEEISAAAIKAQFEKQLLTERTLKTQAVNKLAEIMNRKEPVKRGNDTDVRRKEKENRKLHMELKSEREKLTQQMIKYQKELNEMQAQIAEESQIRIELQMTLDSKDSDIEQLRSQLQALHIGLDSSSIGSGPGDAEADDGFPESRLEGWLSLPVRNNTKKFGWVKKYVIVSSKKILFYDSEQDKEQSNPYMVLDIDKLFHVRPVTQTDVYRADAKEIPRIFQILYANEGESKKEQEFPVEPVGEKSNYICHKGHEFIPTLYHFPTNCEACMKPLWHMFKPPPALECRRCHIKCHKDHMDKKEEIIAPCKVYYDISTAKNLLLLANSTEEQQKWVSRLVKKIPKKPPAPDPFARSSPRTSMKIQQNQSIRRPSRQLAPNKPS
Chain of BTK (Q06187 whole entry): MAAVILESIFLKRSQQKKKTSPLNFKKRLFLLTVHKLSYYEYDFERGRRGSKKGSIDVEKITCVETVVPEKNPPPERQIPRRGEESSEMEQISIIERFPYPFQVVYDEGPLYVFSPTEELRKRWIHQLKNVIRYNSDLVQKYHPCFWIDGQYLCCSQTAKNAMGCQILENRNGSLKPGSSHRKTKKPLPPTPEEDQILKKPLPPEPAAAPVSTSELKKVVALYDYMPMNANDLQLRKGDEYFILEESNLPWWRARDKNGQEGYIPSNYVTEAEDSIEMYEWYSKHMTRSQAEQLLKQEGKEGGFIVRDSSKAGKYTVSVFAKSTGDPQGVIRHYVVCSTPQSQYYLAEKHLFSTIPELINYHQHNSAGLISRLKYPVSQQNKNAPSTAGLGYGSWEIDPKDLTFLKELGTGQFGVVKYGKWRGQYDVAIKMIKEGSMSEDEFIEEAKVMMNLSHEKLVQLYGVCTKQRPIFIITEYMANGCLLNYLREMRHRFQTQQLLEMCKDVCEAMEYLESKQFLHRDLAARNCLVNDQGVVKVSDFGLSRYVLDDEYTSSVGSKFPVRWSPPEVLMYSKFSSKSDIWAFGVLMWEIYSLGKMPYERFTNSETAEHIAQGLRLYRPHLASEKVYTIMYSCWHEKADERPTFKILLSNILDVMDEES
Chain of PIM2 (Q9P1W9 whole entry): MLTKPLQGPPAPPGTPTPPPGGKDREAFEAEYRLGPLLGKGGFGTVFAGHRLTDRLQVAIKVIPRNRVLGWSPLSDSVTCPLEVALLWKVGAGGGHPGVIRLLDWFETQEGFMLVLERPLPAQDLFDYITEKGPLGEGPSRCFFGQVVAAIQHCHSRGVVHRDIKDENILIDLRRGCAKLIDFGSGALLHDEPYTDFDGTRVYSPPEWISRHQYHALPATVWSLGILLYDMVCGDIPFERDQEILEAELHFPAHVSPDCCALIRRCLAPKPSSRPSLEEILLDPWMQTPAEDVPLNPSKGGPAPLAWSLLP
Chain of STK16 (O75716 whole entry): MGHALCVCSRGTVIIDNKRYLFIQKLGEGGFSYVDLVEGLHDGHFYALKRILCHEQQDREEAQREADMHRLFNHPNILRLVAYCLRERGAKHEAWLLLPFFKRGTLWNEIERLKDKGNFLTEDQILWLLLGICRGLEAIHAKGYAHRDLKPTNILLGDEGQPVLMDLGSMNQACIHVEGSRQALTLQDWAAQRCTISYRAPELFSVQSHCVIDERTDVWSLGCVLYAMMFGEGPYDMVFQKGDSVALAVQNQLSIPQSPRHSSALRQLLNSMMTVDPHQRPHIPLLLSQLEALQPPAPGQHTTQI
Chain of EGFR(E746-A750del) (P00533 with tags, fused parts or gaps DEL746-750): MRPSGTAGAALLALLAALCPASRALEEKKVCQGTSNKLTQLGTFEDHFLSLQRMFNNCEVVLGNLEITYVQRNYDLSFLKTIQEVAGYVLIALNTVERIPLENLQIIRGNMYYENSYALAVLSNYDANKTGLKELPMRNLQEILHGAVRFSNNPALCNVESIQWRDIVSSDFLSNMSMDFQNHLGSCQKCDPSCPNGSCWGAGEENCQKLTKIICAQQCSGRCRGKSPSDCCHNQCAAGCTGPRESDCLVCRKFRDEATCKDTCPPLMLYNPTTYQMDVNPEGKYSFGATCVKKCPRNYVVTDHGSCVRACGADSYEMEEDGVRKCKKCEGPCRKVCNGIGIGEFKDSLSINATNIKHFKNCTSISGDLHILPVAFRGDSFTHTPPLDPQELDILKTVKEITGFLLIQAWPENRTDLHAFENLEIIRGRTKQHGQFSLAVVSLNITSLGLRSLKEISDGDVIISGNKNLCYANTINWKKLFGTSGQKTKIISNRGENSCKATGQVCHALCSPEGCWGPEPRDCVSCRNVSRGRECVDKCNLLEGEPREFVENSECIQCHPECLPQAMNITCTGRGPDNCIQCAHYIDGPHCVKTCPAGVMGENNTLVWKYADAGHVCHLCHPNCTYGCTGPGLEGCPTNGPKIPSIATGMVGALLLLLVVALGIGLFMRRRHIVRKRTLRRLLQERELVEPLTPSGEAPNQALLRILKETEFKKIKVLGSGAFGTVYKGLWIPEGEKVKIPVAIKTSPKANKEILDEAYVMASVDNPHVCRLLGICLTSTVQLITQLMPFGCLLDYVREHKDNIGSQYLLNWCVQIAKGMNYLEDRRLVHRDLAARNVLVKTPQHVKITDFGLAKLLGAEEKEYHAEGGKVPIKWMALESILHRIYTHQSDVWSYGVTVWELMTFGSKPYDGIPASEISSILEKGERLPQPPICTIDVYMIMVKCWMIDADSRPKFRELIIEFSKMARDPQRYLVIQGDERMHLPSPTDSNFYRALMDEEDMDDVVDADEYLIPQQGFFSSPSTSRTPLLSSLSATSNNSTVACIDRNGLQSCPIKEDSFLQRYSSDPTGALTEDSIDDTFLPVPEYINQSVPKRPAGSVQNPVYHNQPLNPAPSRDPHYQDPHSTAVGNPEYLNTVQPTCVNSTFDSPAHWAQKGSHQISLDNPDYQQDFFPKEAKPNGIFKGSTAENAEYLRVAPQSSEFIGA

percent of control binding at 10 µM (BRK; [1]): 88% | percent of control binding at 10 µM (BTK; [1]): 86% | percent of control binding at 10 µM (EGFR(E746-A750del); [1]): 97% | percent of control binding at 10 µM (FER; [1]): 100% | percent of control binding at 10 µM (LATS2; [1]): 77% | percent of control binding at 10 µM (MARK2; [1]): 100% | percent of control binding at 10 µM (PIK3CB; [1]): 90% | percent of control binding at 10 µM (PIM2; [1]): 100% | percent of control binding at 10 µM (ROCK2; [1]): 75% | percent of control binding at 10 µM (STK16; [1]): 83% | percent of control binding at 10 µM (TGFBR2; [1]): 89% | percent of control binding at 10 µM (YES; [1]): 93%
Compound: O=C(c1cc(Cc2n[nH]c(=O)c3ccccc23)ccc1F)N1CCN(C(=O)C2CC2)CC1 [Olaparib]

percent of control binding at 10 µM (BRK; [2]): 100% | percent of control binding at 10 µM (BTK; [2]): 100% | percent of control binding at 10 µM (EGFR(E746-A750del); [2]): 100% | percent of control binding at 10 µM (FER; [2]): 94% | percent of control binding at 10 µM (LATS2; [2]): 82% | percent of control binding at 10 µM (MARK2; [2]): 100% | percent of control binding at 10 µM (PIK3CB; [2]): 100% | percent of control binding at 10 µM (PIM2; [2]): 98% | percent of control binding at 10 µM (ROCK2; [2]): 100% | percent of control binding at 10 µM (STK16; [2]): 90% | percent of control binding at 10 µM (TGFBR2; [2]): 98% | percent of control binding at 10 µM (YES; [2]): 92%
Compound: Cn1ncnc1[C@H]1c2n[nH]c(=O)c3cc(F)cc(c23)N[C@@H]1c1ccc(F)cc1 [Talazoparib]

percent of control binding at 10 µM (BRK; [3]): 99% | percent of control binding at 10 µM (BTK; [3]): 83% | percent of control binding at 10 µM (EGFR(E746-A750del); [3]): 81% | percent of control binding at 10 µM (FER; [3]): 95% | percent of control binding at 10 µM (LATS2; [3]): 48% | percent of control binding at 10 µM (MARK2; [3]): 92% | percent of control binding at 10 µM (PIK3CB; [3]): 83% | percent of control binding at 10 µM (PIM2; [3]): 36% | percent of control binding at 10 µM (ROCK2; [3]): 85% | percent of control binding at 10 µM (STK16; [3]): 100% | percent of control binding at 10 µM (TGFBR2; [3]): 96% | percent of control binding at 10 µM (YES; [3]): 99%
Compound: CNCc1ccc(-c2[nH]c3cc(F)cc4c3c2CCNC4=O)cc1 [Rucaparib]

Compound: NC(=O)c1cccc2cn(-c3ccc([C@@H]4CCCNC4)cc3)nc12 [Niraparib]
percent of control binding at 10 µM (BRK; [4]): 91% | percent of control binding at 10 µM (BTK; [4]): 95% | percent of control binding at 10 µM (EGFR(E746-A750del); [4]): 96% | percent of control binding at 10 µM (FER; [4]): 93% | percent of control binding at 10 µM (LATS2; [4]): 4.2% | percent of control binding at 10 µM (MARK2; [4]): 75% | percent of control binding at 10 µM (PIK3CB; [4]): 100% | percent of control binding at 10 µM (PIM2; [4]): 13% | percent of control binding at 10 µM (ROCK2; [4]): 73% | percent of control binding at 10 µM (STK16; [4]): 93% | percent of control binding at 10 µM (TGFBR2; [4]): 92% | percent of control binding at 10 µM (YES; [4]): 83%

Reference: paper PMC7026418, “The kinase polypharmacology landscape of clinical PARP inhibitors” (Scientific Reports, 2020)
